Data set [1] addresses T1, HMGB1-BoxB (Homo sapiens, UniProt P09429).
T1 construct: His-tagged HMGB1-BoxB, HMGB1-BoxA, and full length HMGB1 proteins were produced at the Protein Facility; made in house
T1 sequence (P09429 95-163 limits assumed): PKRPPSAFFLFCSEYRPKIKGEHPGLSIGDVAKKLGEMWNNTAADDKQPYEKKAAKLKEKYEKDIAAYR
Nature of the data set: Microscale thermophoresis (MST) binding to HMGB1-BoxB. As to conditions: 10 nM His-tag RED-tris-NTA labelled protein, PBS-T 0.05 % Tween 20, at least 40 min room temperature, 25 °C. The protocol:
(§1) His-tagged HMGB1-BoxB, HMGB1-BoxA, and full length HMGB1 proteins were produced at the Protein Facility of the Institute for Research in Biomedicine as previously described, [17], and stored in phosphate-buffered saline (PBS; product No. D8537, Sigma Aldrich, Saint Louis, USA).
(§2) Target proteins were fluorescently-labeled using the specific His-Tag Labeling Kit RED-tris-NTA 2nd Generation of NanoTemper Technologies (Product No. MO-L018), according to manufacturer instructions. A fixed 10 nM concentration of labeled target protein was mixed with sixteen 1:1 serial dilutions of the ligand peptide (see Supplementary Materials, Table S4 for the details about the concentration ranges used for the peptides). Both protein and peptide were dissolved in PBS-T buffer (0.05 % Tween™ 20, NanoTemper Technologies), and incubated for at least 40 min at room temperature. […] Finally, the data were processed by employing the dedicated MO.Affinity Analysis software v2.3 (NanoTemper Technologies GmbH, München, Germany) and the Kd values were determined based on concentration-dependent changes in normalized fluorescence (Fnorm), while the figures were generated using GraphPad Prism software v8.0.2 (GraphPad, Boston, USA). […]

Data set [2] has as its target T2, CXCL12/HMGB1 heterocomplex (Homo sapiens, UniProt P09429).
T2 construct: His-tagged HMGB1-BoxB, HMGB1-BoxA, and full length HMGB1 proteins were produced; His-tag; made in house
T2 sequence (P09429 1-215): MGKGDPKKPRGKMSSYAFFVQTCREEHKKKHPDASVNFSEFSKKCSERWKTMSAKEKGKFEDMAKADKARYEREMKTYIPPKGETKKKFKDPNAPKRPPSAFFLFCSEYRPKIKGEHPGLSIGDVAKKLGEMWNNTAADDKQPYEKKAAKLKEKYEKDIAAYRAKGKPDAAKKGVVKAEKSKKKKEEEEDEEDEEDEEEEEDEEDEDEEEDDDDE
As to the kind of experiment: In vitro chemotaxis of human monocytes in response to the CXCL12/HMGB1 heterocomplex (Boyden chamber). As to conditions: 1 nM CXCL12 + 300 nM HMGB1, peptide 0.1-10 μM, 90 min, four independent experiments, read-out: IC50, inhibition of monocyte migration in response to the CXCL12/HMGB1 heterocomplex. The data set is classed as cell-based. The protocol:
The murine 300.19 PreB cell line, stably transfected with the human CXCR4 [47], was cultured under standard culture conditions (5 % CO2, […], 37 °C) in RPMI-1640, supplemented with 10 % Fetal Bovine Serum, 1x non-essential amino acids, 1 mM Sodium pyruvate, 20 mM GlutaMAX, 50 μM β-Mercaptoethanol, 50 U/mL Penicillin and 50 μg/mL Streptomycin (GIBCO). Human monocytes were freshly isolated from buffy-coats obtained by spontaneous donation from healthy individuals (Central Laboratory of Swiss Red Cross, Basel, Switzerland, and Centro Trasfusionale Lugano, Switzerland, Canton Ticino Ethical Committee approval CE3428), and isolated by positive selection using CD14 microbeads (Miltenyi Biotec), as previously described.
In vitro cell migration of CXCR4 + murine 300.19 PreB cells and of freshly isolated human monocytes was performed using Boyden chambers equipped with 5 μm pore membranes, as previously described. Briefly, cells were diluted at 10^6 cell/mL in RPMI 1640, supplemented with 20 mM Hepes, pH 7.4, and 1 % pasteurized plasma protein solution, and allowed to migrate for 90 min in response to different stimuli under standard conditions (5 % CO2, […], 37 °C). CXCL12 was used at 1 nM, 10 nM or 100 nM. The CXCL12/HMGB1 heterocomplex was formed by combining 1 nM CXCL12 with 300 nM HMGB1.

The test system of data set [3] is murine CXCR4 + 300.19 PreB cell line. As to the kind of experiment: Peptide toxicity on murine CXCR4+ 300.19 PreB cells (AnnexinV-FITC / propidium iodide, flow cytometry). Type of data set: cell-based. Particulars: 1 μM or 10 μM, 2 or 4 hours. The procedure:
(§3) After incubation, cells were stained using AnnexinV-FITC and propidium iodide following the manufacturer’s instructions, and cell viability was analyzed by ﬂow cytometry in comparison to the untreated control.
On the technique in general: A flow cytometer gives signals particle by particle.

The target in data set [4] is T3, HMGB1-BoxA (Homo sapiens, UniProt P09429).
T3 construct: His-tagged HMGB1-BoxB, HMGB1-BoxA, and full length HMGB1 proteins were produced at the Protein Facility; made in house
T3 sequence (P09429 9-79 limits assumed): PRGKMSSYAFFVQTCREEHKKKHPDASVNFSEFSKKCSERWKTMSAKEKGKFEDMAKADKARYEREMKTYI
Nature of the data set: Microscale thermophoresis (MST) binding to HMGB1-BoxA. Particulars: 10 nM labelled protein, PBS-T 0.05 % Tween 20, at least 40 min room temperature, 25 °C. The procedure:
as §1, §2
Background: MST reads how a fluorescent partner responds to local heating, with and without ligand.

For data set [5], the system named is human monocytes. As to the kind of experiment: Peptide toxicity on human monocytes (AnnexinV-FITC / propidium iodide, flow cytometry). Type of data set: cell-based. Particulars: 1 μM or 10 μM, 2 or 4 hours. The protocol: as §3
Data set [6] can be described thus: Solubility in PBS buffer. Type of data set: physicochemical. Particulars: compared with HBP08–2.
Data set [7] deals with HMGB1-BoxB. As to the kind of experiment: MST; 10 nM target protein labelled on its His tag (RED-tris-NTA) mixed with sixteen 1:1 serial dilutions of the peptide; PBS-T (0.05 % Tween 20); incubated at least 40 min at room temperature; 25 °C; Monolith NT.115 Pico, excitation 20 %, MST power 40 %.
The target in data set [8] is T4, High Mobility Group Box 1 (HMGB1), full length (UniProt P09429 1-215, RED-tris-NTA dye on the His tag (His-Tag Labeling Kit RED-tris-NTA 2nd Generation) in the MST).
T4 construct: HMGB1, full length; also called recombinant HMGB1; source: produced at the Protein Facility of the Institute for Research in Biomedicine as previously described
T4 sequence (looked up): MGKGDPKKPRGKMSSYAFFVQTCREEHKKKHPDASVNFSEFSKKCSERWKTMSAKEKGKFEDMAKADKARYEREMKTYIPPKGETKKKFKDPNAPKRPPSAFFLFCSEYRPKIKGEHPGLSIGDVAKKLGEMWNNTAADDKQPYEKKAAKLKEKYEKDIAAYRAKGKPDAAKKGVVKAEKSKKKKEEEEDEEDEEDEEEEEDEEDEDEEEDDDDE
The data set is described as above. As to conditions: both partners purified.

Data set [9] concerns the target T5, HMGB1-BoxA (RED-tris-NTA dye on the His tag (His-Tag Labeling Kit RED-tris-NTA 2nd Generation) in the MST).
T5 chain: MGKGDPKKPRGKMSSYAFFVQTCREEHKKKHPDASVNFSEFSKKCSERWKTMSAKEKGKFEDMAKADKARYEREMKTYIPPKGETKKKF
Described as above. As to conditions: both partners purified.

The text below walks through data of paper PMC12925725, “A potent nonapeptide inhibitor for the CXCL12/HMGB1 heterocomplex: A computational and experimental approach” (Computational and Structural Biotechnology Journal, 2025).

For orientation: Kd means the concentration at which binding is half-saturated.

On to `CC[C@H](C)[C@H](NC(=O)[C@H](Cc1c[nH]c2ccccc12)NC(=O)[C@H](CCSC)NC(=O)[C@H](CCC(N)=O)NC(=O)[C@H](Cc1ccc(O)cc1)NC(=O)[C@H](Cc1c[nH]cn1)NC(=O)[C@H](CCCNC(=N)N)NC(=O)[C@@H]1CCCN1)C(=O)N[C@@H](Cc1c[nH]cn1)C(=O)O` [HBP08–2], for which the dissociation constant (Kd) was determined as 11.3 ± 2.3 nM in data set [1] and 4200 ± 400 nM in data set [4]. In addition, the IC50 in data set [2] was 3310 nM. Besides, the “toxicity on murine CXCR4+ 300.19 PreB cells” value in [3] is reported as “did not exhibit toxicity”. Also, the “toxicity on human monocytes” value in data set [5] is on record as “did not exhibit toxicity”.
`CC[C@H](C)[C@H](NC(=O)[C@H](Cc1c[nH]c2ccccc12)NC(=O)[C@H](CCSC)NC(=O)[C@H](CCSC)NC(=O)[C@H](Cc1ccc(O)cc1)NC(=O)[C@H](Cc1c[nH]cn1)NC(=O)[C@H](CCCNC(=N)N)NC(=O)[C@@H]1CCCN1)C(=O)N[C@@H](Cc1c[nH]cn1)C(=O)O` [HBP08–3]: the affinity in data set [1], expressed as Kd, was 15.3 ± 1.9 nM. For the same molecule, the “solubility in PBS buffer” value in data set [6] was “lower solubility”.
Take PRHYMMWIH [HBP08–3]: the Kd in [7] came to 15.3 nM.

B1: HBP08–2 (peptide)
peptide: PRHYQMWIH
notes: Reconstituted in DMSO; also called G1P + E5Q; source: synthetic peptide, synthetized by Proteogenix (without TFA), purity about 99 %
Take B1: the Kd in [7] worked out at 11.3 nM; in data set [8] it was 28.1 ± 7 nM; in data set [9] it was 4200 ± 400 nM.
